One assay addresses T1, BRD7 (Homo sapiens, UniProt Q9NPI1).
T1 construct: HiBiT-BRD7 KI HEK293 (LgBiT) Cells (Promega CS3023410); host or cells: HEK293 (LgBiT), HiBiT knock-in at the BRD7 locus
T1 sequence (Q9NPI1 1-651): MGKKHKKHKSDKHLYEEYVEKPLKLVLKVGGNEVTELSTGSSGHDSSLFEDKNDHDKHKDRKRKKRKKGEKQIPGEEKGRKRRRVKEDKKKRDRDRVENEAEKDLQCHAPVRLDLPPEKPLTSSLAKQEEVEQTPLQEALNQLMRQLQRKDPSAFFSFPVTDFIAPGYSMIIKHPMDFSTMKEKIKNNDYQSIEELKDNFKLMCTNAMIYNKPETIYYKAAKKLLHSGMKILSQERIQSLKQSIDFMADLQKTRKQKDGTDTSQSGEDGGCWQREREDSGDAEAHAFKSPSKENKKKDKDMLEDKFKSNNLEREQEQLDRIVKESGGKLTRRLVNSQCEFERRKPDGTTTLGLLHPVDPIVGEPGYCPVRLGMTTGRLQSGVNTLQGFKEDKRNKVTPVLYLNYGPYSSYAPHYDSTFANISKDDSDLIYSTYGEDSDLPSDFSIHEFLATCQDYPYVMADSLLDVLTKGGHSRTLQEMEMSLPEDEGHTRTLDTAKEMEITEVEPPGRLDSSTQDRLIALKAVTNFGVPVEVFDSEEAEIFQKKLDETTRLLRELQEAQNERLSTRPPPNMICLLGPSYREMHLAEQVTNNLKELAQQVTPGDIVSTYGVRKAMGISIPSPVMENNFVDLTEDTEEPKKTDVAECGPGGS
The assay is described as follows: BRD7 degradation, HiBiT-BRD7 KI HEK293 (LgBiT) cells, NanoGlo Lytic Endpoint assay (Assay Protocol 1). Format: cell-based. As to conditions: for Dmax / DC50: Table 5, assay protocol 1. The method, then:
HiBiT-BRD9 KI HEK293 (LgBiT) Cells (Promega CS3023412) were seeded at 8000 cells per well (38 μL) in sterile white bottom 384 well plates (Invitrogen 164610 or Greiner 781080) and incubated overnight at 37° C. with 5% CO2. The next day, compounds were prepared at 1000× final concentration in DMSO and diluted 1:100 in media (DMEM PAN Biotech P04-03550+10% FBS ATCC 302025). […] The lytic buffer was equilibrated to room temperature for 10-15 min before lytic reagent was prepared by adding substrate (1:50) and LgBit protein (1:100) in lytic buffer. 40 μL lytic reagent mix was added to each well of the cel plate and plates were centrifuged briefly at ˜50g. Plates were incubated with shaking (350 RPM) for 12-24 min before reading using the LUM plus module of a BMG Pherastar FSX. Data was analysed using Dotmatics software and % BRD9 remaining was calculated by normalisation to average data from high and low control wells (DMSO treated cels and no cells respectively).
BRD7 degradation was determined in line with the procedure as outlined above for BRD9, with the exception that HiBiT-BRD7 KI HEK293 (LgBiT) Cells (Promega CS3023410) were seeded at 8000 cells per well (CPW) (36 uL) in sterile white bottom 384 well plates (Invitrogen 164610 or Greiner 781080) and incubated overnight at 37° C. with 5% CO2.
(In general: The HiBiT peptide binds its large partner to form an active luciferase.)

Another assay has as its target T2, BRD9 (Homo sapiens, UniProt Q9H8M2).
T2 sequence (Q9H8M2 1-597): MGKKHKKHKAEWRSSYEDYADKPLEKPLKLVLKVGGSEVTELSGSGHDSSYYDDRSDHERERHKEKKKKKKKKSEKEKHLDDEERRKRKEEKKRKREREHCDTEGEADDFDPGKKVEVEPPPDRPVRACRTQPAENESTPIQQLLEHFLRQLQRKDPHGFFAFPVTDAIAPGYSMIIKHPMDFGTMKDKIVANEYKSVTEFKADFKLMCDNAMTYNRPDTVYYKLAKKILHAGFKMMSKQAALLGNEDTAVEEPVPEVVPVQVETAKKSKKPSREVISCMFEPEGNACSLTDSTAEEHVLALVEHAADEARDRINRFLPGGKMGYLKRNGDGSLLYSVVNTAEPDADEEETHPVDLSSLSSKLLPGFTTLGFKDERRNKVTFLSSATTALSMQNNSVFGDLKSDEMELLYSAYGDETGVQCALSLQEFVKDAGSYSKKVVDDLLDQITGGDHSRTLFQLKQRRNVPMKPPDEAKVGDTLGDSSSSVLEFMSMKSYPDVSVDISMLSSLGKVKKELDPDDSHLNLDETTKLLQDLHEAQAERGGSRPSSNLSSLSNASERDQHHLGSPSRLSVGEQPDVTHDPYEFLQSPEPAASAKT
Put plainly: Degradation of BRD9 (IF), immunofluorescence in MV4-11 cells, 24 hours (Assay Protocol 2). Details: A suspension of MV4-11 cells (ATCC CRL-9591) was prepared; host or cells: MV4-11. Format: cell-based. In outline: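 MV4-11 cells treated with compound 24 h at 37° C., then fixed, permeabilised and immunostained for BRD9 (anti-BRD9 E4Q3F, Alexa 647 secondary, Hoechst counterstain). High-content imaging quantified nuclear BRD9 signal; % BRD9 remaining normalised to DMSO and 100 nM CFT-8634 controls.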

Setting [1] is: MV4-11, Table 4, BRD9 degradation, determined according to Assay Protocol 2, read-out: Dmax^2.
Setting [2] is: MV4-11, Table 5, cells marked *: measured in accordance with Assay Protocol 2, read-out: BRD9 Dmax (%).
[3] abbreviates: Table 5, cells marked *: measured in accordance with Assay Protocol 2, read-out: BRD9 DC50.

In US20260092061A1, “COMPOUNDS FOR TARGETED PROTEIN DEGRADATION” (Amphista Therapeutics Limited, priority 2022, published 2026) one finds Dmax and DC50 data, which are given here for 5 compounds.

Where two headings read alike, the source gives them in different places.

The DC50 is the concentration giving 50% degradation. For `COc1cc(-c2cn(C)c(=O)c(C)c2C)cc(OC)c1CN1CCN(C(=O)/C(C#N)=C/C(C)(C)C)C2(CC2)C1` [BRD9e, (E/Z)-2-(7-(2,6-dimethoxy-4-(1,4,5-trimethyl-6-oxo-1,6-dihydropyridin-3-yl)benzyl)-4,7-diazaspiro[2,5]octane-4-carbonyl)-4,4-dimethylpent-2-enenitrile], the Dmax at BRD7 (HEK293) was less than 25%; on BRD9 (setting [1]) it was 30 to 50%; at BRD9 (setting [2]), 25 to 40%. Further, the half-maximal degradation concentration (DC50) at BRD7 and at BRD9 (setting [3]) was greater than 1000 nM in each case.
Regarding `COc1cc(-c2cn(C)c(=O)c(C)c2C)cc(OC)c1CN(C)C(=O)/C(C#N)=C/C(C)(C)C` [BRD9ac, (E/Z)-2-cyano-N-(2,6-dimethoxy-4-(1,4,5-trimethyl-6-oxo-1,6-dihydropyridin-3-yl)benzyl)-N,4,4-trimethylpent-2-enamide], the Dmax was 70 to 75% at BRD7 (HEK293), 50 to 70% on BRD9 (setting [1]) and 40 to 70% at BRD9 (setting [2]). In addition, the DC50 at BRD7 and at BRD9 (setting [3]) was 25 to 1000 nM each time.
As to `COc1cc(-c2cn(C)c(=O)c(C)c2C)cc(OC)c1CN1CCN(C(=O)/C(C#N)=C/C(C)(C)C)CC1` [BRD9a, (E/Z)-2-(4-(2,6-dimethoxy-4-(1,4,5-trimethyl-6-oxo-1,6-dihydropyridin-3-yl)benzyl)piperazine-1-carbonyl)-4,4-dimethylpent-2-enenitrile], the figures for the Dmax at BRD7 (HEK293) and on BRD9 (setting [1]) were less than 25% and 50 to 70%, respectively. In addition, the DC50 on BRD7 is greater than 1000 nM.
Regarding `COc1cc(-c2cn(C)c(=O)c(C)c2C)cc(OC)c1CN1CC2CC1CN2C(=O)/C(C#N)=C/C(C)(C)C` (mixture of isomers) [BRD9b], the Dmax on BRD7 (HEK293) was less than 25%; on BRD9 (setting [1]), 50 to 70%. The DC50 at BRD7 was greater than 1000 nM; at BRD9 (Table 4, BRD9 degradation, determined according to Assay Protocol 2, read-out: DC50^2), less than 25 nM.
With `COc1cc(-c2cn(C)c(=O)c(C)c2C)cc(OC)c1CN1CCC(Oc2cccc3c2CCN(C(=O)/C(C#N)=C/c2cccc(Br)n2)C3C)CC1` (mixture of isomers) [Compound A68, (E/Z)-3-(6-bromopyridin-2-yl)-2-(5-((1-(2,6-dimethoxy-4-(1,4,5-trimethyl-6-oxo-1,6-dihydropyridin-3-yl)benzyl)piperidin-4-yl)oxy)-1-methyl-1,2,3,4-tetrahydroisoquinoline-2-carbonyl)acrylonitrile], the Dmax at 1 µM at BRD7 (HEK293, Table 3, assay 1, 1 μM compound at 5 h of treatment) is less than 25%. On BRD9 (MV4-11, 24 h, Table 2, BRD9 degradation (IF), Assay Protocol 2, MV4-11 cells, read-out: Assay 2 DCmax), the Dmax lay in the range of 40 to 70%. In addition, the 50% degradation concentration (DC50) on BRD9 (Table 2, BRD9 degradation (IF), Assay Protocol 2, MV4-11 cells, read-out: Assay 2 DC50) is less than 1.25 nM.
